The record followed here is patent publication US20250378918A1, “Phenotype-Based Chemical Screens” (Nemametrix, priority 2015, published 2025).

SMILES strings stand for the structures.

One assay concerns zebrafish larvae. Description: phenoBlast query of behavioral profile database with haloperidol profile. Type of assay: in vivo. To be noted: screened at 10 μM; cutoff = DMSO control well most similar to haloperidol query; FIGS. 2A-2C. The method, then:
To identify compounds with haloperidol-like behavioral profiles, the behaviors of zebrafish larvae in 29,760 compound-treated wells (including 4,300 known bioactive compounds, 20,000 uncharacterized novel compounds and more than 5,000 DMSO controls) were systematically quantified. Behavioral profiles from each well were compiled into a database. Then, the average profile of three haloperidol (5 μM)-treated wells was used to query the compiled database for additional compounds that cause haloperidol-like phenotypes. […] Four of the known hit compounds were antipsychotic drugs (including three butyrophenones and one tricyclic). A fifth compound, DO 897/99 has been under investigation for treatment of schizophrenia and a sixth compound, lidoflazine, is structurally related to the known antipsychotic amperozide and other antipsychotics in the diphenylbutylpiperidine class (e.g., clopimozide, fluspirilene and pimozide) (FIG. 2C).
The Actiprobe library (TimTec Corporation) contains 10,000 compounds dissolved in DMSO at a stock concentration of 1 mg/ml (˜3 mM). The Chembridge library (Chembridge Corporation) contains 10,000 compounds dissolved in DMSO at a stock concentration of 1 mM. The Spectrum Collection (MicroSource Discovery) contains 2,320 compounds dissolved in DMSO at a concentration of 10 mM. The Prestwick library (Prestwick Chemical) contains 1,280 approved drugs dissolved in DMSO at a stock concentration of 10 mM. […]
Digital video were captured at 25 frames per second using an AVT Pike digital camera. […] To analyze digital video recordings, a motion index was calculated by frame differencing. […]
For each well, the raw motion index from each assay was concatenated into a 10,500-point motion index time series. […] The haloperidol query was calculated by averaging the time series from three replicate haloperidol-treated wells. To calculate the phenoBLAST distance metric, L1 distances were calculated by: phenoBLAST Distance=sum (abs(query-well)), where ‘query’ and ‘well’ indicate their associated time series.

The subject of a further assay is larval zebrafish. Description: battery of ten zebrafish behavioral assays (motion index). The class given is in vivo. To be noted: for haloperidol-like behavioral phenotype: antipsychotic drugs, FIG. 1B. The procedure: Haloperidol, a butyrophenone, is known to bind at least 20 molecular targets found in the human brain. To determine how haloperidol affects zebrafish behavior, a battery of ten behavioral assays was developed to compare behavioral profiles from control (DMSO) and haloperidol-treated animals.
A large number of fertilized eggs (up to 20,000 embryos per day) were collected from group matings of Ekkwill zebrafish. Embryos were raised in hatching jars at 28° C. on a 14/10 hour light/dark cycle until 3 days post fertilization (d.p.f.), then transferred to an incubator under the same conditions until 7 d.p.f. Groups of approximately ten larvae (7 d.p.f.) were distributed into the wells of clear flat bottom square well 96-well plates filled with E3 medium (300 μl). Larvae were then incubated at 25° C. on the bench top for one hour prior to chemical treatment and subsequent experiments. All zebrafish protocols were approved by the Institutional Animal Care and Use Committee at Massachusetts General Hospital or at Teleos Therapeutics, LLC.
The Actiprobe library (TimTec Corporation) contains 10,000 compounds dissolved in DMSO at a stock concentration of 1 mg/ml (˜3 mM). The Chembridge library (Chembridge Corporation) contains 10,000 compounds dissolved in DMSO at a stock concentration of 1 mM. The Spectrum Collection (MicroSource Discovery) contains 2,320 compounds dissolved in DMSO at a concentration of 10 mM. The Prestwick library (Prestwick Chemical) contains 1,280 approved drugs dissolved in DMSO at a stock concentration of 10 mM. The Neurotransmitter library (Biomol International; cat. No. 2810) contains 700 compounds dissolved in DMSO at a stock concentration of 10 mM. All compounds were diluted in E3 buffer and screened at 10 μM final concentration and <1% DMSO. Negative controls were treated with an equal volume of DMSO. Stock solutions were added directly to zebrafish in the wells of a 96-well plate, mixed and allowed to incubate for 1 h at room temperature before behavioral evaluation in the Behavioral Battery of assays. Reordered hit compounds were dissolved in DMSO to a stock concentration of 30 mM and added to wells as described above. Hits were retested at a concentration range of 50, 10, 5, 1, 0.5, 0.1, and 0.05 μM in triplicate; assays for retesting were run at 10-minute and 1-hour incubation time points.
Digital video were captured at 25 frames per second using an AVT Pike digital camera. High intensity LEDs were used to deliver violet (405 nm), blue (450 nm), and red (660 nm) light stimuli. Acoustic stimuli were delivered using push-style solenoids to tap the stage. Stimuli and digital recordings were applied to the entire 96-well plate simultaneously. Instrument control and data acquisition were performed using custom MATLAB scripts. Each assay, including video recording and data processing, took ˜40 s per plate per 30 s assay, enabling us to routinely screen 96 wells against a battery of ten assays in less than ten minutes. To analyze digital video recordings, a motion index was calculated by frame differencing. […] The behavioral battery was comprised of ten assays (Assay 1-10) performed in numerical order. phenoBlast ranking and statistics

Turning to `COc1ccccc1N1CCN(CCCCNC(=O)c2ccc3ccccc3c2)CC1.Cl.Cl` [DO 897/99], the “phenoBlast similarity to haloperidol (5 μM) query profile, hit ranking” value (“phenoBlast similarity to haloperidol” below) with zebrafish larvae is reported as “hit compounds”.

On to `O=C(CCCN1CCC(O)(c2ccc(Br)cc2)CC1)c1ccc(F)cc1` [bromperidol], for which the “phenoBlast similarity to haloperidol” value in the assay on zebrafish larvae is recorded as “top ranked hit compound”. In the assay with larval zebrafish, the haloperidol-like behavioral phenotype entry was “cause haloperidol-like behaviors”. For `c1ccc2c(c1)Nc1ccccc1S2` [phenothiazine], the haloperidol-like behavioral phenotype entry in the assay with larval zebrafish is given as “cause haloperidol-like behaviors”. In the case of `O=C(CCCN1CCC(O)(c2ccc(Cl)cc2)CC1)c1ccc(F)cc1` [haloperidol], the “effect on locomotion of larval zebrafish” value with larval zebrafish (high concentrations (50 μM)) was “locomotor impairment”. In addition, in the assay on larval zebrafish (lower concentrations (5 μM), FIG. 1A), the “motion index in behavioral battery” value is listed as “complex pattern of increased activity”.

Regarding `Cc1cccc(C)c1NC(=O)CN1CCN(CCCC(c2ccc(F)cc2)c2ccc(F)cc2)CC1` [lidoflazine], the “phenoBlast similarity to haloperidol” value with zebrafish larvae was “hit compounds”.

Regarding `O=C(CCCN1CC=C(n2c(=O)[nH]c3ccccc32)CC1)c1ccc(F)cc1` [droperidol], the haloperidol-like behavioral phenotype result in the assay with larval zebrafish is “cause haloperidol-like behaviors”. Still for that read-out and setting: for `CSc1ccc2c(c1)N(CCC1CCCCN1C)c1ccccc1S2` (stereo not shown) [thioridazine] the value was “cause haloperidol-like behaviors”; for `CN1CCN(CCCN2c3ccccc3Sc3ccc(Cl)cc32)CC1` [prochlorperazine], “cause haloperidol-like behaviors”.
